# From article PMC8401767, “Spectroscopic Studies of Quinobenzothiazine Derivative in Terms of the In Vitro Interaction with Selected Human Plasma Proteins. Part 1” (Molecules, 2021)
# Counter-ions that a name gives are not always drawn.
# Assays:
# [1] = biological target: T1, Human serum albumin (HSA) (Homo sapiens, UniProt P02768); assay: intrinsic protein fluorescence quenching, Klotz plot; assay type: binding; conditions: λex 295 nm (Trp); pH 7.4, 0.05 M phosphate, 298 K; unit misprinted in table, L/mol by b49
# T1 construct: gene ALB
# Excerpt: intrinsic protein fluorescence quenching, Klotz plot on Human serum albumin (HSA)
# [2] = tested on: T2, α-1-Acid glycoprotein (AGP, orosomucoid); assay: as above; assay type: binding, Homo sapiens; conditions: λex 295 nm (Trp); pH 7.4, 0.05 M phosphate, 298 K; unit misprinted in table, L/mol by b49
# T2 construct: gene ORM1
# Excerpt: intrinsic protein fluorescence quenching, Klotz plot on α-1-Acid glycoprotein (AGP, orosomucoid)
# T1 sequence (P02768 25-609): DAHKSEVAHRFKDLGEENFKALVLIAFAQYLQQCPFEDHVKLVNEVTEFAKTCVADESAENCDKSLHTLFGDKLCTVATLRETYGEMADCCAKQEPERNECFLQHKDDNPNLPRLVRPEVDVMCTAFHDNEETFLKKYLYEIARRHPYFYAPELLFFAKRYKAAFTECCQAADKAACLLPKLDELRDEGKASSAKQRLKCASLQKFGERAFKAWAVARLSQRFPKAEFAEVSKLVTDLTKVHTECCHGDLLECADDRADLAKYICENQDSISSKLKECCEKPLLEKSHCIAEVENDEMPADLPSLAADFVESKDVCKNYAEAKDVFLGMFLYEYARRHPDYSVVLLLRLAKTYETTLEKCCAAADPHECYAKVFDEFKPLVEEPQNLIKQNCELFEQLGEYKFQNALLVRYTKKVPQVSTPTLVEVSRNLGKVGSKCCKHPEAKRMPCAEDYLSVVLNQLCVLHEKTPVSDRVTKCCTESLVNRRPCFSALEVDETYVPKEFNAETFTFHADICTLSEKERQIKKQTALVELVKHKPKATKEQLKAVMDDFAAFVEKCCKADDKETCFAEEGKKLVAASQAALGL
structure (smiles),measurement,setting,value
"C[n+]1cc2c(c3ccccc31)Nc1ccccc1S2 [Salt1, 5-methyl-12(H)-chino[3,4-b][1,4]benzothiazinium chloride]",λex 295 nm / (Ka. 10^4) ±SD * (mol.L^-1),[1],2.71 ± 0.01 ·10^4
same,λex 295 nm / (Ka. 10^4) ±SD * (mol.L^-1),[2],7.86 ± 0.03 ·10^4
